Measurements reported in US7960130B2, “Method for activation of transient receptor potential cation channel, subfamily A, member 1 using acetaldehyde” (Korea University Industry and Academy Cooperation Foundation, priority 2008, dated 2011).
“Also recorded” adds a separate entry of the source.

What was measured:
TRPV3 = target: T1, TRPV3 (Homo sapiens, UniProt Q8NET8); test: Calcium imaging of TRP transfected cell lines treated with acetaldehyde (TRPV3); format: cell-based; details: 1 mM acetaldehyde
T1 construct: expressed in transfected cells; host or cells: HEK293T (ATCC CRL-11268), pcDNA5/FRT
T1 sequence (Q8NET8 1-790): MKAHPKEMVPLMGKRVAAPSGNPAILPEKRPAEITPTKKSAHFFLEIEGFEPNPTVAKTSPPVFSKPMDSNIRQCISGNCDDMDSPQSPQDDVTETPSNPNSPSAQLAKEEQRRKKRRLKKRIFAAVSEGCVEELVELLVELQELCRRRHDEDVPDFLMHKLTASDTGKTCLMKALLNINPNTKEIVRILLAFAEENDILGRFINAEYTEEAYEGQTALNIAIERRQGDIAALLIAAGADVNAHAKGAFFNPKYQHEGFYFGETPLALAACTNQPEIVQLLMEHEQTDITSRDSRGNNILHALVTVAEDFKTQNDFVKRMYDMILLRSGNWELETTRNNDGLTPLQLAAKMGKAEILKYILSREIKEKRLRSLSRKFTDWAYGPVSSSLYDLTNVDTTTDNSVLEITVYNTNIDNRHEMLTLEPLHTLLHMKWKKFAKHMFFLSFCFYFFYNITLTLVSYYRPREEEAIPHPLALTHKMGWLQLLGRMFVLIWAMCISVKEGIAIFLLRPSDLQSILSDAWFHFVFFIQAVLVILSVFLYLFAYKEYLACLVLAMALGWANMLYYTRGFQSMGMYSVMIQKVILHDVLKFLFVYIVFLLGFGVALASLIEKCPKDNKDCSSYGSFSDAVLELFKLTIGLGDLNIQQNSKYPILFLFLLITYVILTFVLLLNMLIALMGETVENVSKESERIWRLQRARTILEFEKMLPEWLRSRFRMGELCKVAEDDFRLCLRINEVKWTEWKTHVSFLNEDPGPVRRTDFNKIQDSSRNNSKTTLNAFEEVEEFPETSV
Text: (§1) HEK293T cell line (ATCC CRL-11268) was transiently transfected with plasmid DNA containing polynucleotide encoding hTRPA1 (SEQ. ID. NO: 1), rTRPV2 (SEQ. ID. NO: 2), rTRPV1 (SEQ. ID. NO: 3), mTRPV4 (SEQ. ID. NO: 4), mTRPA1 (SEQ. ID. NO: 5), hTRPV3 (SEQ. ID. NO: 6) or mTRPM8 (SEQ. ID. NO: 7).
(§2) Particularly, the HEK293T cell line was transiently transfected with individual TRP channel plasmid (pcDNA3.1 containing polynucleotide encoding hTRPA1, rTRPV2, rTRPV1 or mTRPV4; pcDNA5/FRT containing polynucleotide encoding mTRPA1, hTRPV3 or mTRPM8) 3 μg per 35-mm dish and 600 ng/well of pcDNA3 (Invitrogen Corp., USA; containing green fluorescent protein (GFP) cDNA) using Fugene6 (Roche Diagnostics, USA) according to manufacturer's instruction. The transformed cells were cultured in DMEM/F12 containing 10% FBS and 1% penicillin/streptomycin in a CO2 incubator for 24 hours. The cells were replated onto poly-L-lysine-coated glass coverslips, followed by further culture for 10-24 hours.
(§3) Particularly, the transfected cell line of Example <4-1> was loaded with Fluo-3AM (5 μM; Sigma Aldrich, USA) in the bath solution (140 mM NaCl, 5 mM KCl, 2 mM CaCl2, 1 mM MgCl2, 10 mM HEPES; adjusted to pH 7.4 with NaOH) containing 0.02% pluronic acid (Invitrogen, USA). […]

TRPA1 = test: Calcium imaging of TRP transfected cell lines treated with acetaldehyde (TRPA1); format: cell-based; details: 1 mM acetaldehyde
Text: as §1, §2, §3

trigeminal neurons = test: Whole-cell voltage-clamp recording of cultured trigeminal neurons; format: cell-based, mouse; details: 1 mM acetaldehyde, n=6
Experimental: Trigeminal ganglia were dissected out of decapitated adult ICR mice in cold PBS and treated with 1.5 mg/Ml of collagenase/dispase (Roche Diagnostics, USA) at 37 °C for 45 min, and then treated with 0.25% trypsin (Invitrogen, USA) for 15 min. The trigeminal neurons prepared thereby were then plated onto poly-L-lysine-coated coverslips in DMEM/F12 containing 10% FBS, 1% penicillin/streptomycin and 5 ng/Ml of 2.5S NGF (Invitrogen, USA), nerve growth factor (Invitrogen), followed by culture in a CO2 incubator for 48-72 hours.
Particularly, the extracellular solution (140 mM NaCl, 5 mM KCl, 2 mM CaCl2, 1 mM MgCl2, 10 mM HEPES; titrated to pH 7.4 with NaOH) and the pipette solution (140 mM CsCl, 5 mM EGTA, 10 mM HEPES, 2.0 mM MgATP, 0.2 mM NaGTP; titrated to pH 7.2 with CsOH) were used. The potential was holded at −60 mV for 250 ms, voltage-ramp pulsed from −80 mV to +80 mV for […] and returned to −60 mV for 250 ms, which was repeated without intersweep. This experiment was repeated 5 times.
The trigeminal neurons prepared by the same manner as described in Example 2 were delayed-treated with 1 mM acetaldehyde, followed by treatment of 20 μM GdCl3 (a TRPA1 blocker gadolinium; Sigma-Aldrich, USA) and 2 mM camphor. Then, whole-cell voltage-clamp recording was performed by the same manner as described in Example <5-2>.

TRPM8 = target: T2, TRPM8 (Mus musculus, UniProt Q8R4D5); test: Calcium imaging of TRP transfected cell lines treated with acetaldehyde (TRPM8); format: cell-based; details: 1 mM acetaldehyde
T2 construct: expressed in transfected cells; host or cells: HEK293T (ATCC CRL-11268), pcDNA5/FRT
Text: as §1, §2, §3

mTRPA1 = target: T3, mTRPA1 (Mus musculus, UniProt Q8BLA8); test: Fluo-3 calcium imaging of mTRPA1-transfected HEK293T cells; format: cell-based
T3 construct: expressed in transfected cells; host or cells: HEK293T (ATCC CRL-11268), pcDNA5/FRT
Experimental: as §2
(§4) Calcium imaging was performed with a confocal microscope (LSM5 Pascal, Carl Zeiss, Germany), and time-lapse images (488 nm excitation/514 nm emission) were collected every 3 seconds using Carl Zeiss ratio tool software (Carl Zeiss, Germany).
(§5) Stock solutions were made using water or ethanol, and were diluted with test solutions before use.

hTRPA1 = target: T4, hTRPA1 (Homo sapiens, UniProt O75762); test: Fluo-3 calcium imaging of hTRPA1-transfected HEK293T cells; format: cell-based
T4 construct: expressed in transfected cells; host or cells: HEK293T (ATCC CRL-11268), pcDNA3.1
Experimental: as §2, §5, §4, §5

[1] = acetaldehyde 1 to 10^4 μM, Fluo-3 calcium imaging

T3 sequence (Q8BLA8 whole entry): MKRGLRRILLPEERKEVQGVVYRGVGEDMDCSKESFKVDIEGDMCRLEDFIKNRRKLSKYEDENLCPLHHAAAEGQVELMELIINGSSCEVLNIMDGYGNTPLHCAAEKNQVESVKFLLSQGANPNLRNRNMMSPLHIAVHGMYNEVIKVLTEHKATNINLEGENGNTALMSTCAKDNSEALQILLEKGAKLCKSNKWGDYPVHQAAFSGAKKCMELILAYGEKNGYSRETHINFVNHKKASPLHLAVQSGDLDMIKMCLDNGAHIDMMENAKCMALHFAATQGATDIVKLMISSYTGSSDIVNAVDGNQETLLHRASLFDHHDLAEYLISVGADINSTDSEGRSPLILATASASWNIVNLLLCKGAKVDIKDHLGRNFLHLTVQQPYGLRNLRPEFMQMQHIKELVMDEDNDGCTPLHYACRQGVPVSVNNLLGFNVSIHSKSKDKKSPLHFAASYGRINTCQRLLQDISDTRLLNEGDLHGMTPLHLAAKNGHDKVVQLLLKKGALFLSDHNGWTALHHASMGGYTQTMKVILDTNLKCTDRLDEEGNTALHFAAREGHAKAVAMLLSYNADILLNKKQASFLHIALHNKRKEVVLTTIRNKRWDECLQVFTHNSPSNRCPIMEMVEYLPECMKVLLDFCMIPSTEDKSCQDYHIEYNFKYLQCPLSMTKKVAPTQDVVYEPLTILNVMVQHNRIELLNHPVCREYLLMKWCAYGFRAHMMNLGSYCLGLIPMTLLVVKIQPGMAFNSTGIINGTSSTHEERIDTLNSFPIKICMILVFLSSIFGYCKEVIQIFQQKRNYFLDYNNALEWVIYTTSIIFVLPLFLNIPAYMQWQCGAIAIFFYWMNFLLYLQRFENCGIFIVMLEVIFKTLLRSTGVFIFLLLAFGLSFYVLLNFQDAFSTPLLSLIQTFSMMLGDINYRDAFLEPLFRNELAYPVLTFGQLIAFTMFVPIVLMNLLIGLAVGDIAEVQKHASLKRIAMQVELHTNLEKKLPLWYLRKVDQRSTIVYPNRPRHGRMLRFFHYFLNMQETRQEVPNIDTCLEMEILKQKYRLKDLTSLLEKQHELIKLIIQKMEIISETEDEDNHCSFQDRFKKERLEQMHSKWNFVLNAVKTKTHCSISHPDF
T4 sequence (O75762 whole entry): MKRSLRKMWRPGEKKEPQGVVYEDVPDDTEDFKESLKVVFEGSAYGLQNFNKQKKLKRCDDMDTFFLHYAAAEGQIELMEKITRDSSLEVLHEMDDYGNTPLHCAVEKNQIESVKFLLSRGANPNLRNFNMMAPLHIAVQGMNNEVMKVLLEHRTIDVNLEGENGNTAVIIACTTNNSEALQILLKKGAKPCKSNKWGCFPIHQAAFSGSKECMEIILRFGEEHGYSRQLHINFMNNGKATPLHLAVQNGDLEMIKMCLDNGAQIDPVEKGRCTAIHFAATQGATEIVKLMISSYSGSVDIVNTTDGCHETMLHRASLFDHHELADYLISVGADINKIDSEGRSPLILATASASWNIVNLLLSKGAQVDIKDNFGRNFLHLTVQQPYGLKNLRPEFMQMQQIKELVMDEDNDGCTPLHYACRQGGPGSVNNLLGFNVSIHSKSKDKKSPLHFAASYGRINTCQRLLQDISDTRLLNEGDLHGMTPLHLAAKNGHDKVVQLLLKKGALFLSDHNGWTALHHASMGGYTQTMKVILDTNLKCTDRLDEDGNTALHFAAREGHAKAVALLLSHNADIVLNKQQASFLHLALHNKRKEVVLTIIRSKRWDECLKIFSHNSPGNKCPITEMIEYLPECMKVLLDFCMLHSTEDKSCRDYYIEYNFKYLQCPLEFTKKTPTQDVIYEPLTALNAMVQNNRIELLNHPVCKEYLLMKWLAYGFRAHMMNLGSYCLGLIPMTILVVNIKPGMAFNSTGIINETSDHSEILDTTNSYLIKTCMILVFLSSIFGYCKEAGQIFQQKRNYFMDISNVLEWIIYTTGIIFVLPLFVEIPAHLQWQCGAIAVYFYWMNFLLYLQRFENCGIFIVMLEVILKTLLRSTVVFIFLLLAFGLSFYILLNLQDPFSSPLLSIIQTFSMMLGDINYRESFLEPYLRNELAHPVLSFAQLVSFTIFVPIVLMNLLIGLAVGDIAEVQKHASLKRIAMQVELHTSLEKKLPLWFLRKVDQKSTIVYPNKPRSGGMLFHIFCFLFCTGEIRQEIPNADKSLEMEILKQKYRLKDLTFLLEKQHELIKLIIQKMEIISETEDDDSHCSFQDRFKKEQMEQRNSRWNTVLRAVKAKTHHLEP
T2 sequence (Q8R4D5 whole entry): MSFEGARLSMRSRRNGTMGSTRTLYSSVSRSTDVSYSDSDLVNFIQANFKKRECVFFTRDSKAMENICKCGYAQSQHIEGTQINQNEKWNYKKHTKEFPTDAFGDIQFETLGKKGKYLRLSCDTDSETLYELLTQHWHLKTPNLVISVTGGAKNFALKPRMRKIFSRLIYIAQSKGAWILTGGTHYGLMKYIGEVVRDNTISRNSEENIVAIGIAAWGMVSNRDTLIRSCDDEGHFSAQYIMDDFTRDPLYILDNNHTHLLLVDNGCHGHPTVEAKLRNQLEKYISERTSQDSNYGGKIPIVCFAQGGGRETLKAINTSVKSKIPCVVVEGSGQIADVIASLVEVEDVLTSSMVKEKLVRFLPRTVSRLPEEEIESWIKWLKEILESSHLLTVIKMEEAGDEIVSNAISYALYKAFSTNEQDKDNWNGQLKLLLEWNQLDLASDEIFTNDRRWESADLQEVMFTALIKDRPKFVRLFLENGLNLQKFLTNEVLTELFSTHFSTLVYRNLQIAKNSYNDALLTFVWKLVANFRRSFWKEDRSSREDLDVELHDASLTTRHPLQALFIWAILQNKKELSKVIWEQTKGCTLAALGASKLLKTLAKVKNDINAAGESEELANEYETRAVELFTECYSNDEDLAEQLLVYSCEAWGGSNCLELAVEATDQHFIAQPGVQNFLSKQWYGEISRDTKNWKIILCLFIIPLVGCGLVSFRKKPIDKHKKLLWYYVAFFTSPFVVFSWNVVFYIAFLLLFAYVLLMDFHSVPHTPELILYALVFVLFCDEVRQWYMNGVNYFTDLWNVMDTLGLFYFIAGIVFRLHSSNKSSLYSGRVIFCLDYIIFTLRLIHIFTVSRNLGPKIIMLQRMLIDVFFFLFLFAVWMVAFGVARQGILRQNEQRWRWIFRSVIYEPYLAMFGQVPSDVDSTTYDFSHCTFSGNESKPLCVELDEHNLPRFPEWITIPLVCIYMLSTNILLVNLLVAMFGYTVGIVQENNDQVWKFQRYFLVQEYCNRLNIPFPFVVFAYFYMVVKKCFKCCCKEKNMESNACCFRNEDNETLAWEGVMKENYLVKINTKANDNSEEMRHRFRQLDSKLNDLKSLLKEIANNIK

CC=O [acetaldehyde]
activation of TRPV3 by acetaldehyde (TRPV3): only TRPA1 was activated | activation of TRPA1 by acetaldehyde (TRPA1): only TRPA1 was activated | current increase in trigeminal neurons (trigeminal neurons): increased current | activation of TRPM8 by acetaldehyde (TRPM8): only TRPA1 was activated | EC50 (mTRPA1): 1190 µM | n of dose-response curve (Hill plot) on mTRPA1 (mTRPA1; [1]): 3.1 | maximum efficacy in mTRPA1 responses compared with hTRPA1 (mTRPA1; dose-response, calcium imaging): greater maximum efficacy | EC50 (hTRPA1): 76.5 µM | elevation of intracellular calcium levels in hTRPA1-expressing cells (hTRPA1; 1 mM acetaldehyde, 300 μM cinnamaldehyde, 10 mM acetic acid, 1% methanol, 1% ethanol): TRPA1-specific responses; also recorded: responded | n of dose-response curve (Hill plot) on hTRPA1 (hTRPA1; [1]): 2.4
